pEC50: −log10 of the molar value.
Key:
human ALX receptor = molecular target: T1, human ALX receptor (Homo sapiens, UniProt P25090); experiment: Intracellular calcium measurements (FLIPR), agonistic activity in HEK293-hALXR-Gα16 cells; assay type: cell-based; conditions: Fluo-4 calcium FLIPR, normalized to WKYMVm 10 nM
T1 construct: expressed in transfected cells; host or cells: HEK293 (HEK293-hALXR-Gα16)
T1 sequence (P25090 1-351): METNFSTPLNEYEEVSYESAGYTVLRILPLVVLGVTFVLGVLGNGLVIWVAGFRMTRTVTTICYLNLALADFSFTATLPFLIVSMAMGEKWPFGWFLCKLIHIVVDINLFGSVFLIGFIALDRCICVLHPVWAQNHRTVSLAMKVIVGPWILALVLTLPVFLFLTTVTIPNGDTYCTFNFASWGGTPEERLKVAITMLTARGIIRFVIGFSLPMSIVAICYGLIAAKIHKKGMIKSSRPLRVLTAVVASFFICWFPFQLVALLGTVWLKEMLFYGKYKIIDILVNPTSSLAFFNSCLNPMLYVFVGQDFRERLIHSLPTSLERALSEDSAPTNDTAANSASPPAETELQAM
In short: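 Agonist-induced calcium flux was recorded by FLIPR (488/540 nm) in HEK293-hALXR-Gα16 cells pre-loaded with Fluo-4 AM (1 μM, 60 min, 37°C). Peak signal above baseline, after subtracting buffer addition, was expressed relative to WKYMVm at 10 nM final.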

human FPRL2 = molecular target: T2, human FPRL2 (Homo sapiens, UniProt P25089); experiment: Intracellular calcium measurements (FLIPR), agonistic activity in HEK293-hFPRL2-Gα16 cells; assay type: cell-based; conditions: Fluo-4 calcium FLIPR, normalized to GLY14-Humanin 100 nM
T2 construct: expressed in transfected cells; host or cells: HEK293 (HEK293-hFPRL2-Gα16)
T2 sequence (P25089 1-353): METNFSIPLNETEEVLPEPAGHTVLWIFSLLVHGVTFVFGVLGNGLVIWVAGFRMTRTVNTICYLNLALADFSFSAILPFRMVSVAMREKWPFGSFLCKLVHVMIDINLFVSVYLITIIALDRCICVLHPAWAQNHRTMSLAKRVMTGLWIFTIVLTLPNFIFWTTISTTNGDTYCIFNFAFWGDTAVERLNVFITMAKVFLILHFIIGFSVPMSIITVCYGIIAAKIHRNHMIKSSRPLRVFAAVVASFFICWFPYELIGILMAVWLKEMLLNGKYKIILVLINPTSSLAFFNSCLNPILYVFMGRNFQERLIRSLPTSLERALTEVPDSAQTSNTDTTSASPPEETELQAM
In short: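 Peak values after baseline subtraction are expressed relative to 100 nM Gly14-Humanin; compounds diluted in assay buffer from 10 mM DMSO stocks.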

O=C(NC1CC1)[C@H]1[C@H](C(=O)Nc2ccc(Br)cc2)[C@@H]2CC[C@H]1C21CC1 (racemic) [Example 106, (5R*)—N^5-(4-Bromophenyl)-(6R*)—N^6-(cyclopropyl)-(4S*,7R*)-[4,7-ethylene-spiro[2.4]heptane]-5,6-dicarboxamide]
pEC50 (human ALX receptor): 7.09
pEC50 (human FPRL2): 5.53

O=C(NCCCO)[C@H]1[C@H](C(=O)Nc2ccc(Br)cc2)[C@@H]2CC[C@H]1C21CC1 (racemic) [Example 107, (5R*)—N^5-(4-Bromophenyl)-(6R*)—N^6-(3-hydroxy-propyl)-(4S*,7R*)-[4,7-ethylene-spiro[2.4]heptane]-5,6-dicarboxamide]
pEC50 (human ALX receptor): 8.74
pEC50 (human FPRL2): 5.64

O=C(NCCCn1ccnc1)[C@H]1[C@H](C(=O)Nc2ccc(Br)cc2)[C@@H]2CC[C@H]1C21CC1 (racemic) [Example 108, (5R*)—N^5-(4-Bromophenyl)-(6R*)—N^6-(3-(1H-imidazol-1-yl)-propyl)-(4S*,7R*)-[4,7-ethylene-spiro[2.4]heptane]-5,6-dicarboxamide]
pEC50 (human ALX receptor): 8.39
pEC50 (human FPRL2): 5.83

CN(C)CCCCCNC(=O)[C@H]1[C@H](C(=O)Nc2ccc(Br)cc2)[C@@H]2CC[C@H]1C21CC1 (racemic) [Example 109, (5R*)—N^5-(4-Bromophenyl)-(6R*)—N^6-(5-(dimethyl-amino)-pentyl)-(4S*,7R*)-[4,7-ethylene-spiro[2.4]heptane]-5,6-dicarboxamide]
pEC50 (human ALX receptor): 9.15
pEC50 (human FPRL2): 6.18

O=C(NCCCN1CCCC1)[C@H]1[C@H](C(=O)Nc2ccc(Br)cc2)[C@@H]2CC[C@H]1C21CC1 (racemic) [Example 110, (5R*)—N^5-(4-Bromophenyl)-(6R*)—N^6-(3-pyrrolidin-1-yl-propyl)-(4S*,7R*)-[4,7-ethylene-spiro[2.4]heptane]-5,6-dicarboxamide]
pEC50 (human ALX receptor): 7.80
pEC50 (human FPRL2): 6.51

CN1CCN(CCCNC(=O)[C@H]2[C@H](C(=O)Nc3ccc(Br)cc3)[C@@H]3CC[C@H]2C32CC2)CC1 (racemic) [Example 111, (5R*)—N^5-(4-Bromophenyl)-(6R*)—N^6-(3-(4-methyl-piperazin-1-yl)-propyl)-(4S*,7R*)-[4,7-ethylene-spiro[2.4]heptane]-5,6-dicarboxamide]
pEC50 (human ALX receptor): 8.89
pEC50 (human FPRL2): 7.15

O=C(NCCCCN1CCCC1)C1C(C(=O)Nc2ccc(Br)nc2)C2C=CC1C21CC1 (racemic) [Example 114, (5R*)—N^5-(2-Bromopyridin-5-yl)-(6R*)—N^6-(4-pyrrolidin-1-yl-butyl)-(4S*,7R*)-[4,7-ethenylene-spiro[2.4]heptane]-5,6-dicarboxamide]
pEC50 (human ALX receptor): 8.85
pEC50 (human FPRL2): 6.27

COc1ccc(NC(=O)C2C(C(=O)NCCCCN3CCCC3)C3C=CC2C32CC2)cc1 (racemic) [Example 115, (5R*)—N^5-(4-Methoxyphenyl)-(6R*)—N^6-(4-pyrrolidin-1-yl-butyl)-(4S*,7R*)-[4,7-ethenylene-spiro[2.4]heptane]-5,6-dicarboxamide]
pEC50 (human ALX receptor): 8.70
pEC50 (human FPRL2): 6.69

O=C(NCCCCN1CCCC1)C1C(C(=O)Nc2ccc(Cl)nc2)C2C=CC1C21CC1 (racemic) [Example 116, (5R*)—N^5-(2-Chloro-pyridin-5-yl)-(6R*)—N^6-(4-pyrrolidin-1-yl-butyl)-(4S*,7R*)-[4,7-ethenylene-spiro[2.4]heptane]-5,6-dicarboxamide]
pEC50 (human ALX receptor): 8.11
pEC50 (human FPRL2): 6.05

O=C(NCCCCN1CCCC1)[C@H]1[C@H](C(=O)Nc2ccc3scnc3c2)[C@@H]2C=C[C@H]1C21CC1 (racemic) [Example 117, (5R*)—N^5-(Benzothiazol-5-yl)-(6R*)—N^6-(4-pyrrolidin-1-yl-butyl)-(4S*,7R*)-[4,7-ethenylene-spiro[2.4]heptane]-5,6-dicarboxamide]
pEC50 (human ALX receptor): 8.00
pEC50 (human FPRL2): 6.44

O=C(NCCCCN1CCCC1)C1C(C(=O)NCc2ccc(Br)cc2)C2C=CC1C21CC1 (racemic) [Example 118, (5R*)—N^5-(4-Bromophenyl-methyl)-(6R*)—N^6-(4-pyrrolidin-1-yl-butyl)-(4S*,7R*)-[4,7-ethenylene-spiro[2.4]heptane]-5,6-dicarboxamide]
pEC50 (human ALX receptor): 7.33
pEC50 (human FPRL2): 6.85

O=C(NCCCCN1CCCC1)C1C(C(=O)Nc2ccc(Br)cn2)C2C=CC1C21CC1 (racemic) [Example 119, (5R*)—N^5-(5-Bromo-pyridin-2-yl)-(6R*)—N^6-(4-pyrrolidin-1-yl-butyl)-(4S*,7R*)-[4,7-ethenylene-spiro[2.4]heptane]-5,6-dicarboxamide]
pEC50 (human ALX receptor): 7.77
pEC50 (human FPRL2): 6.39

O=C(NCCCCN1CCCC1)[C@H]1[C@H](C(=O)Nc2ncc(Br)s2)[C@@H]2C=C[C@H]1C21CC1 (racemic) [Example 120, (5R*)—N^5-(5-Bromo-thiazol-2-yl)-(6R*)—N^6-(4-pyrrolidin-1-yl-butyl)-(4S*,7R*)-[4,7-ethenylene-spiro[2.4]heptane]-5,6-dicarboxamide]
pEC50 (human ALX receptor): 7.77
pEC50 (human FPRL2): 6.44

Cc1ccc(NC(=O)[C@H]2[C@H](C(=O)NCCCCN3CCCC3)[C@H]3C=C[C@@H]2C32CC2)nc1 (racemic) [Example 121, (5R*)—N^5-(5-Methyl-pyridin-2-yl)-(6R*)—N^6-(4-pyrrolidin-1-yl-butyl)-(4S*,7R*)-[4,7-ethenylene-spiro[2.4]heptane]-5,6-dicarboxamide]
pEC50 (human ALX receptor): 7.02
pEC50 (human FPRL2): 6.34

CCCCCNC(=O)[C@H]1[C@H](C(=O)NCCCCN2CCCC2)[C@H]2C=C[C@@H]1C21CC1 (racemic) [Example 122, (5R*)—N^5-Pentyl-(6R*)—N^6-(4-pyrrolidin-1-yl-butyl)-(4S*,7R*)-[4,7-ethenylene-spiro[2.4]heptane]-5,6-dicarboxamide]
pEC50 (human ALX receptor): 7.10
pEC50 (human FPRL2): 6.30

Cc1ccc(CNC(=O)[C@H]2[C@H](C(=O)NCCCCN3CCCC3)[C@H]3C=C[C@@H]2C32CC2)cc1 (racemic) [Example 123, (5R*)—N^5-[(4-Methyl-phenyl)-methyl]-(6R*)—N^6-(4-pyrrolidin-1-yl-butyl)-(4S*,7R*)-[4,7-ethenylene-spiro[2.4]heptane]-5,6-dicarboxamide]
pEC50 (human ALX receptor): 7.34
pEC50 (human FPRL2): 6.48

COC(=O)CCNC(=O)[C@H]1[C@H](C(=O)NCCCCN2CCCC2)[C@H]2C=C[C@@H]1C21CC1 (racemic) [Example 124, (5R*)—N^5-(2-Methoxycarbonyl-ethyl)-(6R*)—N^6-(4-pyrrolidin-1-yl-butyl)-(4S*,7R*)-[4,7-ethenylene-spiro[2.4]heptane]-5,6-dicarboxamide]
pEC50 (human ALX receptor): 7.28
pEC50 (human FPRL2): 5.94

O=C(NCCCCN1CCCC1)[C@H]1[C@H](C(=O)NCC2CCCCC2)[C@@H]2C=C[C@H]1C21CC1 (racemic) [Example 125, (5R*)—N^5-(Cyclohexyl-methyl)-(6R*)—N^6-(4-pyrrolidin-1-yl-butyl)-(4S*,7R*)-[4,7-ethenylene-spiro[2.4]heptane]-5,6-dicarboxamide]
pEC50 (human ALX receptor): 7.22
pEC50 (human FPRL2): 6.57

CC(=O)CCCCNC(=O)[C@H]1[C@H](C(=O)NCCCCN2CCCC2)[C@H]2C=C[C@@H]1C21CC1 (racemic) [Example 127, (5R*)—N^5-(5-oxo-hexyl)-(6R*)—N^6-(4-pyrrolidin-1-yl-butyl)-(4S*,7R*)-[4,7-ethenylene-spiro[2.4]heptane]-5,6-dicarboxamide]
pEC50 (human ALX receptor): 7.02
pEC50 (human FPRL2): 5.56

O=C(NCCCCN1CCCC1)[C@H]1[C@H](C(=O)Nc2ncc([N+](=O)[O-])s2)[C@@H]2C=C[C@H]1C21CC1 (racemic) [Example 128, (5R*)—N^5-(5-Nitro-thiazol-2-yl)-(6R*)—N^6-(4-pyrrolidin-1-yl-butyl)-(4S*,7R*)-[4,7-ethenylene-spiro[2.4]heptane]-5,6-dicarboxamide]
pEC50 (human ALX receptor): 6.92
pEC50 (human FPRL2): 5.46

O=C(NCCCCN1CCCC1)[C@H]1[C@H](C(=O)Nc2ncc(Cl)s2)[C@@H]2C=C[C@H]1C21CC1 (racemic) [Example 129, (5R*)—N^5-(5-Chloro-thiazol-2-yl)-(6R*)—N^6-(4-pyrrolidin-1-yl-butyl)-(4S*,7R*)-[4,7-ethenylene-spiro[2.4]heptane]-5,6-dicarboxamide]
pEC50 (human ALX receptor): 6.92
pEC50 (human FPRL2): 5.92

N#Cc1cnc(NC(=O)[C@H]2[C@H](C(=O)NCCCCN3CCCC3)[C@H]3C=C[C@@H]2C32CC2)s1 (racemic) [Example 130, (5R*)—N^5-(5-Cyano-thiazol-2-yl)-(6R*)—N^6-(4-pyrrolidin-1-yl-butyl)-(4S*,7R*)-[4,7-ethenylene-spiro[2.4]heptane]-5,6-dicarboxamide]
pEC50 (human ALX receptor): 6.78
pEC50 (human FPRL2): 5.20
